Reference: article PMC5029699, “Landscape of activating cancer mutations in FGFR kinases and their differential responses to inhibitors in clinical use” (Oncotarget, 2016)

Columns and labels:
[1] = tested on: cell line with introduced FGFR3 V555M mutation; set-up: method as in PMID 26097890; settings: cell line originally responding to both drugs; cited from earlier work
[2] = tested on: JHUEM-2 cancer cell line, FGFR2 mutation corresponding to N540K; set-up: method as in PMID 23908597; settings: cited from earlier work
[3] = tested on: NIH3T3 cells expressing FGFR3 K650E; settings: K650E NIH3T3 cells vs FGFR3TACC3-fusion cells, in words
Method: (§1) For the cell viability assay in the presence of FGFR inhibitors, NIH3T3 cells transfected with the stated FGFR3 variants were plated in 96-well plates, 1000 cells per well. Twenty-four hours later the cells were treated with various concentrations of kinase inhibitor. Forty-eight hours later, fresh inhibitor was added and the cells incubated for 72 hours. Cell viability was measured through the addition of CellTiter-Glo (Promega) and luminenscence measured with a standard luminometer plate reader. Data were normalised and fitted to a log(inhibitor) vs. response curve (three parameters) with GraphPad Prism.

[4] = tested on: NIH3T3 cells expressing FGFR3 N540K; settings: N540K NIH3T3 cells vs FGFR3TACC3-fusion cells, in words
Method: as §1

[5] = tested on: NIH3T3 cells expressing FGFR3TACC3-fusion (WT KD); settings: AZD4547 compared with JNJ42756493
Method: as §1

[6] = tested on: cancer cell lines with the FGFR3 S249C substitution; settings: some cancer cell lines with FGFR3 S249C; cited from earlier work

Row | Compound | drug effect following introduction of FGFR3 V555M mutation [1] | drug response due to mutation corresponding to N540K in FGFR2 [2] | effect of variant on inhibitor efficacy in cells [3] | effect of variant on inhibitor efficacy in cells [4] | difference between AZD4547 and JNJ42756493 cellular IC50s [5] | viability and proliferation of cancer cell lines [6]
1 | CCN(CC)CCCCNc1ncc2cc(-c3cc(OC)cc(OC)c3)c(NC(=O)NC(C)(C)C)nc2n1 [PD173074] | loss of efficacy | reduced sensitivity |  |  |  | 
2 | AZD4547 |  |  | reduce efficacy | reduce efficacy | 2-3 fold | compromised
